The first data set is described as follows: logP by HPLC on reversed-phase column (C 18), EEC Directive 79/B31 Annex V.A8, methods A and B. It counts as physicochemical. The conditions noted are these: HPLC reversed-phase C 18, method B: 40° C., 0.1% aqueous formic acid and acetonitrile, linear gradient 10% to 90% acetonitrile. Here is the method:
Calibration was carried out using unbranched alkan-2-ones (having 3 to 16 carbon atoms) with known logP values (determination of the logP values by the retention times using linear interpolation between two successive alkanones).
With `CCCOc1nn(C)cc1C(=O)N(C1CC1)S(=O)(=O)c1ccc(Oc2ccc(F)c(O)c2)cc1Br` [Compound 304], the LogP is recorded as 5.0.

The same data set, now with this note: reversed-phase HPLC column (C 18), HPLC reversed-phase C 18, method A: 43° C., 0.1% aqueous phosphoric acid, acetonitrile, linear gradient 10% to 90% acetonitrile.
Regarding `Cc1nn(C)c(F)c1C(=O)N(C1CC1)S(=O)(=O)c1ccccc1` [Compound 181], the chromatographic logP was determined as 2.28.

`COc1ccccc1S(=O)(=O)N(C(=O)c1c(C)nn(C)c1F)C1CC1` [Compound 182]: the chromatographic logP was found to be 2.06.

`Cc1ccc(S(=O)(=O)N(C(=O)c2c(C)nn(C)c2F)C2CC2)cc1` [Compound 183] displayed a chromatographic logP of 2.59.

Consider `COc1ccc(S(=O)(=O)N(C(=O)c2c(C)nn(C)c2F)C2CC2)cc1` [Compound 184], for which the chromatographic logP came out at 2.35.

As for `Cc1nn(C)c(F)c1C(=O)N(C1CC1)S(=O)(=O)c1ccc([N+](=O)[O-])cc1` [Compound 185], the chromatographic logP was determined as 2.54.

Compound `Cc1nn(C)c(F)c1C(=O)N(C1CC1)S(=O)(=O)c1ccc(O)cc1` [Compound 190] yielded a chromatographic logP of 2.83.

`Cc1nn(C)c(F)c1C(=O)N(C1CC1)S(=O)(=O)c1cc(O)ccc1O` [Compound 191] displayed a chromatographic logP of 2.91.

In the case of `Cc1nn(C)c(F)c1C(=O)N(C1CC1)S(=O)(=O)c1cc(O)cc(O)c1` [Compound 193], the chromatographic logP stood at 3.48.

`Cc1nn(C)c(F)c1C(=O)N(C1CC1)S(=O)(=O)c1cccc([N+](=O)[O-])c1` [Compound 195] displayed a chromatographic logP of 2.48.

Regarding `Cc1nn(C)cc1C(=O)N(C1CC1)S(=O)(=O)c1ccccc1O` [Compound 197], the chromatographic logP turned out to be 1.95.

Regarding `Cc1nn(C)c(O)c1C(=O)N(C1CC1)S(=O)(=O)c1ccccc1O` [Compound 199], the chromatographic logP was determined as 2.58.

Compound `Cn1cc(C(=O)N(C2CC2)S(=O)(=O)c2ccccc2O)c(C(F)(F)F)n1` [Compound 200] came in with a chromatographic logP of 2.71.

`Cc1c(C(=O)N(C2CC2)S(=O)(=O)c2ccccc2O)cnn1-c1ccccc1` [Compound 201] registered a chromatographic logP of 2.97.

Compound `Cc1nn(C)c(F)c1C(=O)N(C1CC1)S(=O)(=O)c1ccccc1[N+](=O)[O-]` [Compound 202] yielded a chromatographic logP of 2.25.

The compound `Cc1nn(C)c(F)c1C(=O)N(C1CC1)S(=O)(=O)c1ccccc1-c1ccccc1` [Compound 206] came in with a chromatographic logP of 2.96.

`Cn1nc(C(F)(F)F)c(C(=O)N(C2CC2)S(=O)(=O)c2ccccc2O)c1O` [Compound 208] returned a chromatographic logP of 3.27.

On to `Cc1nn(C)c(F)c1C(=O)N(C1CC1)S(=O)(=O)c1ccccc1C#N` [Compound 216], for which the chromatographic logP is 2.07.

The compound `Cc1nn(C)c(F)c1C(=O)N(C1CC1)S(=O)(=O)c1c(F)cccc1F` [Compound 217] registered a chromatographic logP of 2.25.

The same data set, now with this note: reversed-phase HPLC column (C 18), HPLC reversed-phase C 18, method B: 40° C., 0.1% aqueous formic acid and acetonitrile, linear gradient 10% to 90% acetonitrile.
Compound `Cn1nc(C(F)F)c(C(=O)N(C2CC2)S(=O)(=O)c2ccccc2C(F)(F)F)c1F` [Compound 106] displayed a chromatographic logP of 3.

`Cn1nc(C(F)F)c(C(=O)N(C2CC2)S(=O)(=O)c2ccc(Oc3ccccc3)cc2)c1F` [Compound 107] had a chromatographic logP of 3.8.

Turning to `Cn1nc(C(F)(F)F)c(C(=O)N(C2CC2)S(=O)(=O)c2ccc(O)c(O)c2O)c1F` [Compound 108], the chromatographic logP came out at 4.1.

On to `CC(F)c1nn(C)cc1C(=O)N(C1CC1)S(=O)(=O)c1cccc(O)c1O` (centres unmarked) [Compound 119], for which the chromatographic logP was determined as 2.8.

`CC(F)c1nn(C)cc1C(=O)N(C1CC1)S(=O)(=O)c1ccc(O)c(O)c1O` (centres unmarked) [Compound 120] showed a chromatographic logP of 3.4.

Regarding `CC(F)c1nn(C)cc1C(=O)N(C1CC1)S(=O)(=O)c1ccc(Oc2ccccc2)cc1` (centres unmarked) [Compound 121], the chromatographic logP was 3.5.

As to `CC(F)c1nn(C)cc1C(=O)N(C1CC1)S(=O)(=O)c1ccc(Oc2ccc(Br)cc2)cc1` (centres unmarked) [Compound 122], the chromatographic logP amounted to 4.1.

`Cn1cc(C(=O)N(C2CC2)S(=O)(=O)c2cccc(O)c2O)c(C(F)F)n1` [Compound 221] yielded a chromatographic logP of 2.9.

`Cn1nc(C2CC2)c(C(=O)N(C2CC2)S(=O)(=O)c2ccc(O)c(O)c2O)c1O` [Compound 223]: the chromatographic logP stood at 4.2.

As for `Cn1nc(C2CC2)c(C(=O)N(C2CC2)S(=O)(=O)c2ccc(O)c(O)c2O)c1F` [Compound 224], the chromatographic logP was determined as 3.9.

Turning to `Cn1nc(C2CC2)c(C(=O)N(C2CC2)S(=O)(=O)c2cccc(O)c2O)c1Cl` [Compound 225], the chromatographic logP came to 4.7.

`Cc1nn(C)c(C#N)c1C(=O)N(C1CC1)S(=O)(=O)c1ccc(O)c(O)c1O` [Compound 228] yielded a chromatographic logP of 3.9.

`Cc1nn(C)c(N(C)C)c1C(=O)N(C1CC1)S(=O)(=O)c1ccc(O)c(O)c1O` [Compound 229]: the chromatographic logP amounted to 3.6.

`COc1c(C(=O)N(C2CC2)S(=O)(=O)c2ccc(O)c(O)c2O)c(C)nn1C` [Compound 230] had a chromatographic logP of 3.2.

On to `Cc1nn(C)c(Oc2ccc(O)cc2)c1C(=O)N(C1CC1)S(=O)(=O)c1ccccc1O` [Compound 261], for which the chromatographic logP was found to be 3.6.

Consider `COc1nn(C)c(O)c1C(=O)N(C1CC1)S(=O)(=O)c1cccc(O)c1O` [Compound 278], for which the chromatographic logP was 3.2.

With `COc1nn(C)c(O)c1C(=O)N(C1CC1)S(=O)(=O)c1ccc(Oc2ccccc2)cc1` [Compound 280], the chromatographic logP amounted to 3.8.

In the case of `COc1nn(C)c(O)c1C(=O)N(C1CC1)S(=O)(=O)c1ccc(O)c(O)c1O` [Compound 282], the chromatographic logP amounted to 3.8.

The compound `COc1nn(C)c(O)c1C(=O)N(C1CC1)S(=O)(=O)c1ccc(Oc2ccc(Br)cc2)cc1` [Compound 284] showed a chromatographic logP of 4.3.

Regarding `CCCOc1nn(C)cc1C(=O)N(C1CC1)S(=O)(=O)c1ccc(Oc2ccc(C)nc2)cc1Br` [Compound 285], the chromatographic logP was 2.7.

In the case of `CCCOc1nn(C)cc1C(=O)N(C1CC1)S(=O)(=O)c1ccc(Oc2ccc(-n3cncn3)cc2)cc1Br` [Compound 286], the chromatographic logP was found to be 3.

On to `CCCOc1nn(C)cc1C(=O)N(C1CC1)S(=O)(=O)c1ccc(Oc2ccc3ccc(=O)oc3c2)cc1Br` [Compound 287], for which the chromatographic logP was found to be 3.4.

As to `CCCOc1nn(C)cc1C(=O)N(C1CC1)S(=O)(=O)c1ccc(Oc2ccc(OC)c(OC)c2)cc1Br` [Compound 288], the chromatographic logP was found to be 3.6.

In turn, `CCCOc1nn(C)cc1C(=O)N(C1CC1)S(=O)(=O)c1ccc(Oc2ccc(OC)cc2)cc1Br` [Compound 289] returned a chromatographic logP of 4.

As for `CCCOc1nn(C)cc1C(=O)N(C1CC1)S(=O)(=O)c1ccc(Oc2ccccc2)cc1Br` [Compound 290], the chromatographic logP stood at 4.1.

In turn, `CCCOc1nn(C)cc1C(=O)N(C1CC1)S(=O)(=O)c1ccc(Oc2ccccc2O)cc1Br` [Compound 291] registered a chromatographic logP of 4.2.

Compound `CCCOc1nn(C)cc1C(=O)N(C1CC1)S(=O)(=O)c1ccc(Oc2cccc(N(C)C)c2)cc1Br` [Compound 292] registered a chromatographic logP of 4.4.

Turning to `CCCOc1nn(C)cc1C(=O)N(C1CC1)S(=O)(=O)c1ccc(Oc2ccc(C)cc2)cc1Br` [Compound 293], the chromatographic logP worked out at 4.5.

`CCCOc1nn(C)cc1C(=O)N(C1CC1)S(=O)(=O)c1ccc(Oc2ccc(F)c(O)c2)cc1Br` [Compound 294] returned a chromatographic logP of 4.5.

In turn, `CCCOc1nn(C)cc1C(=O)N(C1CC1)S(=O)(=O)c1ccc(Oc2ccc(O)cc2)cc1Br` [Compound 295] yielded a chromatographic logP of 4.5.

Consider `CCCOc1nn(C)cc1C(=O)N(C1CC1)S(=O)(=O)c1ccc(Oc2cccc(O)c2)cc1Br` [Compound 296], for which the chromatographic logP was 4.5.

`CCCOc1nn(C)cc1C(=O)N(C1CC1)S(=O)(=O)c1ccc(Oc2cccc(C(F)(F)F)c2)cc1Br` [Compound 297] had a chromatographic logP of 4.5.

The compound `CCCOc1nn(C)cc1C(=O)N(C1CC1)S(=O)(=O)c1ccc(Oc2ccc(C(F)(F)F)cc2)cc1Br` [Compound 298] yielded a chromatographic logP of 4.6.

For the compound `CCCOc1nn(C)cc1C(=O)N(C1CC1)S(=O)(=O)c1ccc(Oc2cccc(Br)c2)cc1Br` [Compound 299], the chromatographic logP worked out at 4.6.

`CCCOc1nn(C)cc1C(=O)N(C1CC1)S(=O)(=O)c1ccc(Oc2ccc(Br)cc2)cc1Br` [Compound 300]: the chromatographic logP came to 4.6.

`CCCOc1nn(C)cc1C(=O)N(C1CC1)S(=O)(=O)c1ccc(Oc2ccc(O)cc2Cl)cc1Br` [Compound 301] registered a chromatographic logP of 4.9.

For `CCCOc1nn(C)cc1C(=O)N(C1CC1)S(=O)(=O)c1ccc(Oc2ccc(O)c(C(F)(F)F)c2)cc1Br` [Compound 302], the chromatographic logP amounted to 4.9.

The compound `CCCOc1nn(C)cc1C(=O)N(C1CC1)S(=O)(=O)c1ccc(Oc2ccc(Cl)c(Cl)c2)cc1Br` [Compound 303] displayed a chromatographic logP of 4.9.

`CCCOc1nn(C)cc1C(=O)N(C1CC1)S(=O)(=O)c1ccc(Oc2cc(O)cc(O)c2)cc1Br` [Compound 305]: the chromatographic logP stood at 5.1.

`CCCCc1ccc(S(=O)(=O)N(C(=O)c2c(C(F)(F)F)nn(C)c2F)C2CC2)cc1` [Compound 359] came in with a chromatographic logP of 4.3.

`Cn1nc(C(F)(F)F)c(C(=O)N(C2CC2)S(=O)(=O)c2c(O)cccc2O)c1F` [Compound 360] displayed a chromatographic logP of 3.1.

Turning to `Cn1nc(C(F)(F)F)c(C(=O)N(C2CC2)S(=O)(=O)c2cc(O)c(O)cc2O)c1F` [Compound 361], the chromatographic logP worked out at 4.

Consider `Cn1nc(C(F)(F)F)c(C(=O)N(C2CC2)S(=O)(=O)c2ccc(F)cc2O)c1F` [Compound 362], for which the chromatographic logP came to 3.1.

Compound `Cn1nc(C(F)(F)F)c(C(=O)N(C2CC2)S(=O)(=O)c2c(O)cc(O)cc2O)c1F` [Compound 363] displayed a chromatographic logP of 3.7.

`Cn1nc(C(F)(F)F)c(C(=O)N(C2CC2)S(=O)(=O)c2ccccc2C(F)(F)F)c1F` [Compound 364] returned a chromatographic logP of 3.1.

Consider `Cn1nc(C(F)(F)F)c(C(=O)N(C2CC2)S(=O)(=O)c2ccccc2OC(F)(F)F)c1F` [Compound 365], for which the chromatographic logP worked out at 3.2.

As a reminder, the LogP is the decadic logarithm of the partition coefficient of the neutral form, usually between octanol and water. Lower therefore signals a more hydrophilic compound. The term chromatographic logP denotes lipophilicity estimated from chromatographic retention. High values mean a more lipophilic compound, low ones a more hydrophilic compound.

The values above are taken from patent US7932283B2, “Fungicide N-cyclopropyl-sulfonylamide derivatives” (Bayer Cropscience AG, priority 2006, dated 2011).
